≈ marks a conversion by molar mass, not a printed value.
System: Mycobacterium tuberculosis
Test: Antitubercular activity against Mycobacterium tuberculosis H37Ra ATCC 25177 assessed as growth inhibition after 8 days by XTT reduction menadione assay
Format: functional, organism-based
Conditions: H37Ra ATCC 25177, 192 h

| SMILES | IC50 | IC90 |
| --- | --- | --- |
| O=C(CC1OC(=O)c2ccccc21)c1ccco1 (centres undefined) | 0.81 µg/mL (≈ 3.34 µM) |  |
| O=C(CC1OC(=O)c2ccccc21)c1cccs1 (centres undefined) | 1.24 µg/mL (≈ 4.8 µM) |  |
| O=C(CC1OC(=O)c2ccccc21)c1ccc(Cl)cc1 (centres undefined) | 0.97 µg/mL (≈ 3.38 µM) |  |
| NNC(=O)c1ccncc1 [ISONIAZID] |  | 0.125 µg/mL (≈ 0.911 µM) |
